Data as given in patent US5889148A, “Antibiotic peptides” (priority 1995, dated 1999).
≈ marks a conversion by molar mass, not a printed value. Non-standard residues stand in square brackets, D forms with d. No end group written: not given here. Aib = CC(C)(N)C(=O)O

Columns and labels:
[1] = test system: Candida albicans (ATCC 36232); test: MIC test, antifungal activity; assay type: cell-based
Method: (§1) Antibacterial and antifungal activities of the peptides were determined by employing MIC test as follows:
(§2) To determine antifungal activity, a test organism Candida albicans (ATCC 36232) was cultured on Sabouraud dextrose agar plate for 24 to 48 hrs, and colonies thus grown were suspended on Sabouraud dextrose medium(Gibco, USA) to have O.D.530 =0.5(3×10^6 cells) and further diluted with 100-fold to have O.D.530 =0.005(3×10^4 cells). 100 μl of Candida albicans culture thus prepared was pipetted on 96-well microplates which had already contained 100 μl of a serially diluted peptide solution.

[2] = test system: Staphylococcus aureus (ATCC 6538); test: MIC test, antibacterial activity; assay type: cell-based
Method: as §1, §2
Antibacterial activity of peptide was determined analogously as above, with an exception that Staphylococcus aureus (ATCC 6538) selected as a test organism was cultured on M-3 medium(Gibco, USA) at 37° C. and cell number was adjusted to 2×10^8 cells before 100-fold dilution.

[3] = Table 8, TEDFK derivatives of group 1
[4] = Table 4, addition of an amino acid to N-terminal of TEDF
[5] = Table 1, peptide fragments of Tenecin
[6] = Table 6, substitution of Cys in TEDFK with Aib
[7] = Table 7, comparison with Ketoconazole (Example 3)
[8] = Table 3, addition of an amino acid to N-terminal of TED
[9] = Table 2, modification of N-terminal residues of TED
[10] = Table 11, enantiomer, retro-inverso, D-amino acid derivatives of M22

Molecule: KFYCNKRVCVCR--NH2 (KFYCNKRVCVCR-NH2; cysteine pairing not given here) [TEDFK-1]
- MIC against C. albicans ([1]; Table 5, modification of TEDFK): 5 µg/mL

Molecule: WFYCNGKRVCVCR--NH2 (WFYCNGKRVCVCR-NH2; cysteine pairing not given here) [M29]
- MIC C. albicans [1, 3]: 25 µg/mL
- MIC S. aureus [2, 3]: 30 µg/mL

Molecule: FFYCNGKRVCVCR--NH2 (FFYCNGKRVCVCR-NH2; cysteine pairing not given here) [TEDFF]
- MIC C. albicans [1, 4]: 3 µg/mL
- MIC S. aureus [2, 4]: 5 µg/mL

Molecule: LSVEAKGVKLGGGYCNGKRVCVCR--NH2 (LSVEAKGVKLGGGYCNGKRVCVCR-NH2; cysteine pairing not given here) [TEQ]
- MIC C. albicans [1, 5]: > 100 µg/mL
- MIC S. aureus [2, 5]: > 500 µg/mL

Molecule: KKYCNKKCVCK--NH2 [M6] (KKYCNKKCVCK-NH2; cysteine pairing not given here)
- MIC C. albicans [1, 3]: 3.12 µg/mL
- MIC S. aureus [2, 3]: 3.16 µg/mL

Molecule: KFYCNGKRV[Aib]VCR-NH2 (cysteine pairing not given here) [TEDFK-2A]
- MIC against C. albicans [1, 6]: 5 µg/mL
- MIC against C. albicans [1, 7]: 6 µg/mL

Molecule: KKYCNKKCVCK--NH2 [M5] (KKYCNKKCVCK-NH2; cysteine pairing not given here)
- MIC C. albicans [1, 3]: 3.12 µg/mL
- MIC S. aureus [2, 3]: 3.16 µg/mL

Molecule: KFYCNWKRVCVCR--NH2 (KFYCNWKRVCVCR-NH2; cysteine pairing not given here) [M30]
- MIC C. albicans [1, 3]: 12.5 µg/mL
- MIC S. aureus [2, 3]: 12.7 µg/mL

Molecule: KFYCNGKRICICR--NH2 (KFYCNGKRICICR-NH2; cysteine pairing not given here) [M13]
- MIC C. albicans [1, 3]: 6.25 µg/mL
- MIC S. aureus [2, 3]: 6.35 µg/mL

Molecule: KWYCNGKRVCVCR--NH2 (KWYCNGKRVCVCR-NH2; cysteine pairing not given here) [M26]
- MIC C. albicans [1, 3]: 6.25 µg/mL
- MIC S. aureus [2, 3]: 6.35 µg/mL

Molecule: LYCNGKRVCVCR--NH2 (LYCNGKRVCVCR-NH2; cysteine pairing not given here) [TEDL]
- MIC C. albicans [1, 8]: 5 µg/mL
- MIC S. aureus [2, 8]: 5 µg/mL

Molecule: KFY[Aib]KGKRVCVCR-NH2 (cysteine pairing not given here) [M17]
- MIC C. albicans [1, 3]: 6.25 µg/mL
- MIC S. aureus [2, 3]: 6.35 µg/mL

Molecule: SFYCNGKRVCVCR--NH2 (SFYCNGKRVCVCR-NH2; cysteine pairing not given here) [TEDFS]
- MIC C. albicans [1, 4]: 10 µg/mL
- MIC S. aureus [2, 4]: 50 µg/mL

Molecule: DFYCNGKRVCVCR--NH2 (DFYCNGKRVCVCR-NH2; cysteine pairing not given here) [TEDFD]
- MIC C. albicans [1, 4]: > 500 µg/mL
- MIC S. aureus [2, 4]: > 500 µg/mL

Molecule: FPYCNGKRVCVCR--NH2 (FPYCNGKRVCVCR-NH2; cysteine pairing not given here) [TEDFP]
- MIC C. albicans [1, 4]: > 500 µg/mL
- MIC S. aureus [2, 4]: > 500 µg/mL

Molecule: YFYCNGKRVCVCR--NH2 (YFYCNGKRVCVCR-NH2; cysteine pairing not given here) [TEDFY]
- MIC C. albicans [1, 4]: 100 µg/mL
- MIC S. aureus [2, 4]: 50 µg/mL

Molecule: LCNGKRVCVCR--NH2 (LCNGKRVCVCR-NH2; cysteine pairing not given here) [TED17]
- MIC against C. albicans [1, 9]: 100 µg/mL

Molecule: KGKRVCVCR--NH2 (KGKRVCVCR-NH2; cysteine pairing not given here) [TED12]
- MIC against C. albicans [1, 9]: > 500 µg/mL

Molecule: KKYCNXRVCVCR--NH2 [M4]
- MIC C. albicans [1, 3]: 3.12 µg/mL
- MIC S. aureus [2, 3]: 3.16 µg/mL

Molecule: KFYCNGKRVCVCR--NH2 [TEDFK-8] (KFYCNGKRVCVCR-NH2; cysteine pairing not given here)
- MIC against C. albicans ([1]; Table 5, modification of TEDFK): 5 µg/mL
- MIC against C. albicans [1, 7]: 6 µg/mL

Molecule: KKyIKKVFVFK--NH2 [M22-26]
- MIC C. albicans [1, 10]: 3.15 µg/mL
- MIC S. aureus [2, 10]: 3.16 µg/mL

Molecule: KFYCNGRVCVCR--NH2 (KFYCNGRVCVCR-NH2; cysteine pairing not given here) [TEDFK-2]
- MIC against C. albicans ([1]; Table 5, modification of TEDFK): 5 µg/mL
- MIC against C. albicans [1, 7]: 6 µg/mL

Molecule: KFYCNGKRVCVCL--NH2 (KFYCNGKRVCVCL-NH2; cysteine pairing not given here) [TEDFK-10]
- MIC against C. albicans ([1]; Table 5, modification of TEDFK): 5 µg/mL
- MIC against C. albicans [1, 7]: 6 µg/mL

Molecule: KFYCNGKRV[Aib]VCK-NH2 (cysteine pairing not given here) [M25]
- MIC C. albicans [1, 3]: 6.25 µg/mL
- MIC S. aureus [2, 3]: 6.35 µg/mL

Molecule: DAACAAHHCLFR--NH2 (DAACAAHHCLFR-NH2; cysteine pairing not given here) [TEA]
- MIC C. albicans [1, 5]: > 100 µg/mL
- MIC S. aureus [2, 5]: > 500 µg/mL

Molecule: WFYCNGKRVCVCR--NH2 (WFYCNGKRVCVCR-NH2; cysteine pairing not given here) [TEDFW]
- MIC C. albicans [1, 4]: 10 µg/mL
- MIC S. aureus [2, 4]: 1 µg/mL

Molecule: KFYCNGKRVCV[Aib]R-NH2 (cysteine pairing not given here) [TEDFK-3A]
- MIC against C. albicans [1, 6]: 20 µg/mL
- MIC against C. albicans [1, 7]: 12 µg/mL

Molecule: PYCNGKRVCVCR--NH2 (PYCNGKRVCVCR-NH2; cysteine pairing not given here) [TEDP]
- MIC C. albicans [1, 8]: 5 µg/mL
- MIC S. aureus [2, 8]: 5 µg/mL

Molecule: KKYCNGKRVCVCR--NH2 (KKYCNGKRVCVCR-NH2; cysteine pairing not given here) [M1]
- MIC C. albicans [1, 3]: 3.12 µg/mL
- MIC S. aureus [2, 3]: 3.16 µg/mL

Molecule: KFYCKGKRVCVCR--NH2 (KFYCKGKRVCVCR-NH2; cysteine pairing not given here) [TEDFK-7]
- MIC against C. albicans ([1]; Table 5, modification of TEDFK): 3 µg/mL
- MIC against C. albicans [1, 7]: 3 µg/mL

Molecule: KPYCNGKRVCVCR--NH2 (KPYCNGKRVCVCR-NH2; cysteine pairing not given here) [M2]
- MIC C. albicans [1, 3]: 6.25 µg/mL
- MIC S. aureus [2, 3]: 6.35 µg/mL

Molecule: LFYCNGKRVCVCR--NH2 (LFYCNGKRVCVCR-NH2; cysteine pairing not given here) [TEDFL]
- MIC C. albicans [1, 4]: 100 µg/mL
- MIC S. aureus [2, 4]: 30 µg/mL

Molecule: FYCNGKRVCVCR--NH2 (FYCNGKRVCVCR-NH2; cysteine pairing not given here) [TEDF]
- MIC C. albicans [1, 8]: 10 µg/mL
- MIC C. albicans [1, 4]: 10 µg/mL
- MIC S. aureus [2, 8]: 5 µg/mL
- MIC S. aureus [2, 4]: 5 µg/mL

Molecule: GKRVCVCR--NH2 (GKRVCVCR-NH2; cysteine pairing not given here) [TED11]
- MIC against C. albicans [1, 9]: > 500 µg/mL

Molecule: KFYCNLKRVCVCR--NH2 (KFYCNLKRVCVCR-NH2; cysteine pairing not given here) [TEDFK-4]
- MIC against C. albicans ([1]; Table 5, modification of TEDFK): 5 µg/mL

Molecule: KFYCNKKRVCVCR--NH2 (KFYCNKKRVCVCR-NH2; cysteine pairing not given here) [TEDFK-5]
- MIC against C. albicans ([1]; Table 5, modification of TEDFK): 5 µg/mL
- MIC against C. albicans [1, 7]: 3 µg/mL

Molecule: KFYCNPKRVCVCR--NH2 (KFYCNPKRVCVCR-NH2; cysteine pairing not given here) [TEDFK-3]
- MIC against C. albicans ([1]; Table 5, modification of TEDFK): 5 µg/mL
- MIC against C. albicans [1, 7]: 6 µg/mL

Molecule: KFY[Aib]NGKRVCVCR-NH2 (cysteine pairing not given here) [TEDFK-1A]
- MIC against C. albicans [1, 7]: 2 µg/mL

Molecule: KFYCVGKRVCVCR--NH2 (KFYCVGKRVCVCR-NH2; cysteine pairing not given here) [TEDFK-6]
- MIC against C. albicans ([1]; Table 5, modification of TEDFK): 5 µg/mL
- MIC against C. albicans [1, 7]: 6 µg/mL

Molecule: KFYCNGKRVCVCD--NH2 (KFYCNGKRVCVCD-NH2; cysteine pairing not given here) [TEDFK-11]
- MIC against C. albicans ([1]; Table 5, modification of TEDFK): 5 µg/mL
- MIC against C. albicans [1, 7]: 6 µg/mL

Molecule: KCNGKRVCVCR--NH2 (KCNGKRVCVCR-NH2; cysteine pairing not given here) [TED18]
- MIC against C. albicans [1, 9]: > 500 µg/mL

Molecule: KKYIVFVFK--NH2 (KKYIVFVFK-NH2) [M33]
- MIC against C. albicans ([1]; Table 10, TEDFK derivatives of group 3): 3.12 µg/mL

Molecule: CNGKRVCVCR--NH2 (CNGKRVCVCR-NH2; cysteine pairing not given here) [TED15]
- MIC against C. albicans [1, 9]: > 500 µg/mL

Molecule: KFYCNPGPVCVCR--NH2 (KFYCNPGPVCVCR-NH2; cysteine pairing not given here) [TEDFK-9]
- MIC against C. albicans ([1]; Table 5, modification of TEDFK): 20 µg/mL
- MIC against C. albicans [1, 7]: 12 µg/mL

Molecule: CC(=O)N1CCN(c2ccc(OCC3COC(Cn4ccnc4)(c4ccc(Cl)cc4Cl)O3)cc2)CC1 (stereo not shown) [Ketoconazole, reference compound]
- MIC ([1]; Candida albicans, ATCC36232, Table 7, comparison with Ketoconazole (Example 3), read-out: MIC against C. albicans): 6 µg/mL (≈ 11.3 µM)
